The values below come from patent publication EP0858509B1, “DNA SEQUENCES ENCODING CMH-1, A CYSTEINE PROTEASE INVOLVED IN APOPTOSIS” (VERTEX PHARMACEUTICALS INCORPORATED, priority 1995, dated 1997).

For this experiment, the target named is T1, CMH-1 (Homo sapiens, UniProt P55210).
T1 construct: we expressed an N-terminal (His)6-tagged CMH-1(Ala24-Gln303) in E. coli; made in house; host or cells: E. coli BL21(DE3), pET-15b
T1 sequence (P55210 24-303): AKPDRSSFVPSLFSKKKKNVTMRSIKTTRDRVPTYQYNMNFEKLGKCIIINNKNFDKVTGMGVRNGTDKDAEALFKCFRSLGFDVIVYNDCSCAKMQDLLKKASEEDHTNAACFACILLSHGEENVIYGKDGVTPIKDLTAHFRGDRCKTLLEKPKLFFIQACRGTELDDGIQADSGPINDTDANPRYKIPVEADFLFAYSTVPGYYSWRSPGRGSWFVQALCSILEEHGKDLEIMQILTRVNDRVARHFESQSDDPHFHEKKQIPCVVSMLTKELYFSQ
T1 sequence (P55210 199-303): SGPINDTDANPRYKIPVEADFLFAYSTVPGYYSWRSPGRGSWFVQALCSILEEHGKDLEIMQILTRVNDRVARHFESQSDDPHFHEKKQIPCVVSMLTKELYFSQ
As to the kind of experiment: Inhibition of in vitro cleavage of 35S-labelled PARP by CMH-1 (SDS-PAGE and fluorography). Format: biochemical. The settings on record: 35S-labelled PARP as substrate, Fig. 4, panel B. Here is the method:
In order to determine the activity of purified CMH-1, we determined whether the protein could cleave ^35[S]-labeled pro-IL-1b and PARP and compared its cleavage activity to purified ICE. We prepared ^35[S]-labeled PARP and IL-1b precursor (pro-IL-1b) by in vitro transcription and translation. Cleavage experiments were carried out as described previously [Y. Gu et al., J. Biol. Chem. (1995)]. Cleavage products were analyzed by SDS-PAGE and fluorography as described in that reference.
YVAD-CHO: the “inhibition of the cleavage activity of CMH-1” value is listed as “not”.
The value for `CCN1C(=O)C=CC1=O` [N-ethylmaleimide] was “inhibited”; that for `NC(=O)CI` [iodoacetamide] was “inhibited”.
